Reference: patent US12233105B1, “Methods for storing and warming purified corticotropin compositions” (ANI Pharmaceuticals, Inc., priority 2022, dated 2025)

System: THP-1 Blue, Raw Blue, HEK-blue hTLR3, HEK-Blue hTLR4, HEK-Blue hNOD2
Experiment: Innate immune response activation assays in TLR/NOD2 reporter cell lines
Assay type: cell-based
Settings: 5 cell lines covering TLR and NOD2 expression; 3 PPQ lots; highest drug substance concentration tested 10 μg/mL
Method: Method development, qualification, and testing for activation of innate immune response was performed. The innate immune assays performed compared 3 PPQ lots. The work was conducted using 5 cell lines to cover TLR and NOD2 expression (THP-1 Blue, Raw Blue, HEK-blue hTLR3, HEK-Blue hTLR4, HEK-Blue hNOD2). […] The highest drug substance concentration tested was 10 μg/mL. A dose of the sterile preparation of purified corticotropin at 80 U is, equivalent to approximately 1 mg of drug substance per total body weight of subject.

Structure (SMILES) | dose response for activation of innate immune response
CCCc1nc2c(N)nc3ccccc3c2s1 [CL075] | robust dose responses
CC(=O)N[C@@H]1[C@@H](O[C@H](C)C(=O)N[C@@H](C)C(=O)N[C@H](CCC(=O)O)C(N)=O)[C@H](O)[C@@H](CO)O[C@H]1O [MDP] | robust dose responses
